Patent US20030114382A1, “Glycogen synthase kinase function in endothelial cells” (priority 2001, published 2003)

Columns and labels:
[1] = test system: Akt phosphorylation; test: Immunoblot of Akt phosphorylation in HUVECs; assay type: cell-based, human; conditions: for Akt phosphorylation: HUVECs, single agent; for level of Akt phosphorylation: combined administration of PD98059 and SB203480, presence or absence of PI3K inhibition
Description: To examine the regulation of GSK3β phosphorylation, HUVECs were serum-starved for 15 hours, treated with the indicated agents for 1 hour, and stimulated with 10% fetal bovine serum.
Immunoblot analysis. HUVECs were washed in phosphate-buffered saline and harvested by scraping in 50 mM Tris-HCl (pH 7.2), 250 mM NaCl, 1% NP40, 0.05% SDS, 2 mM EDTA, 0.5% deoxycholic acid, 10 mM 13-glycerophosphate, 1 mM vanadate, 1 mM phenyl methyl sulfonyl fluoride (PMSF). One mini tablet of protease inhibitor cocktail (Roche, Summerville, N.J.) per 10 ml of lysis buffer, vanadate, and PMSF were added just prior to use. Protein concentration was determined with protein assay kit (Pierce, Rockford, Ill.). Protein (20 μg) was separated on SDS-polyacrylamide electrophoresis gel and transferred to a polyvinylidene difluoride membrane (Millipore, Bedford, Mass.). The membrane was blocked with T-PBS (1×PBS, 0.3% Tween-20) containing 3% dry milk and incubated with primary antibody overnight at 4° C. After three washes with T-PBS, the membrane was reblocked and incubated with secondary antibody for 1 hour at room temperature. ECL or ECL-PLUS (Amersham, Piscataway, N.J.) was used for detection. To reprobe the membrane, it was treated with Restore Western Blot stripping buffer (Pierce, Rockford, Ill.). The primary antibodies used were anti-phospho GSK-3β (Ser9) antibody (1:750 dilution, Cell Signaling Technology, Beverly, Mass.), anti-phospho Akt (Ser473) antibody (1:250 dilution, Cell Signaling Technology, Beverly, Mass.), anti-total GSK-3β antibody (1:1000 dilution, Santa Cruz, Santa Cruz, Calif.), and anti-a tubulin antibody (1:4000 dilution, Oncogene, Boston, Mass.). The secondary antibodies were anti-rabbit IgG/HRP conjugate or anti-mouse IgG/HRP conjugate (1:2500 dilution, Promega, San Luis Obispo, Calif.).

[2] = test system: GSK3β phosphorylation at serine 9; test: Immunoblot of GSK3β phosphorylation at serine 9 in HUVECs; assay type: cell-based, human; conditions: for serum-induced phosphorylation of GSK3β: serum-starved HUVECs, 1 hour pretreatment with agent, 10% FBS 1 hour
Description: Cell culture and adenoviral vectors. Human umbilical vein ECs (HUVECs) were isolated as previously described (29) and cultured in EGM media (Clonetics, Walkersville, Md.). Four to six passage cells were used in this study. To examine the regulation of GSK3β phosphorylation, HUVECs were serum-starved for 15 hours, treated with the indicated agents for 1 hour, and stimulated with 10% fetal bovine serum.
Immunoblot analysis. HUVECs were washed in phosphate-buffered saline and harvested by scraping in 50 mM Tris-HCl (pH 7.2), 250 mM NaCl, 1% NP40, 0.05% SDS, 2 mM EDTA, 0.5% deoxycholic acid, 10 mM 13-glycerophosphate, 1 mM vanadate, 1 mM phenyl methyl sulfonyl fluoride (PMSF). One mini tablet of protease inhibitor cocktail (Roche, Summerville, N.J.) per 10 ml of lysis buffer, vanadate, and PMSF were added just prior to use. Protein concentration was determined with protein assay kit (Pierce, Rockford, Ill.). Protein (20 μg) was separated on SDS-polyacrylamide electrophoresis gel and transferred to a polyvinylidene difluoride membrane (Millipore, Bedford, Mass.). The membrane was blocked with T-PBS (1×PBS, 0.3% Tween-20) containing 3% dry milk and incubated with primary antibody overnight at 4° C. After three washes with T-PBS, the membrane was reblocked and incubated with secondary antibody for 1 hour at room temperature. ECL or ECL-PLUS (Amersham, Piscataway, N.J.) was used for detection. To reprobe the membrane, it was treated with Restore Western Blot stripping buffer (Pierce, Rockford, Ill.). The primary antibodies used were anti-phospho GSK-3β (Ser9) antibody (1:750 dilution, Cell Signaling Technology, Beverly, Mass.), anti-phospho Akt (Ser473) antibody (1:250 dilution, Cell Signaling Technology, Beverly, Mass.), anti-total GSK-3β antibody (1:1000 dilution, Santa Cruz, Santa Cruz, Calif.), and anti-a tubulin antibody (1:4000 dilution, Oncogene, Boston, Mass.).

| SMILES | Akt phosphorylation [1] | induction of GSK3β phosphorylation by 8-bromo cAMP or forskolin ([2]; pretreatment with H89, serum-deprived HUVECs) | serum-induced phosphorylation of GSK3β [2] | level of Akt phosphorylation [1] |
| --- | --- | --- | --- | --- |
| O=S(=O)(NCCNC/C=C/c1ccc(Br)cc1)c1cccc2cnccc12 [H89] | promoted | blocked | inhibited | – |
| COc1cccc(-c2cc(=O)c3ccccc3o2)c1N [PD98059] | not | – | partially inhibited | detectably elevated |
| C[S+]([O-])c1ccc(-c2nc(-c3ccncc3)c(-c3ccc(F)cc3)[nH]2)cc1 (stereo not drawn) [SB203480] | not | – | partially inhibited | detectably elevated |
